Experimental data: PMC12040169 (PLOS Biology, 2025)

Experiment: in vitro
Conditions: human, hela cells, % viability

Compound | viability at 28.5 h, 10 µM
CC(=O)N(C)c1nc(-c2cccc(N(C)C)c2)ccc1C(=O)NCCc1ccc(S(N)(=O)=O)cc1 [CBK076578] | 88.8%
CC(=O)Nc1ccc(CN(C)c2c(C)nc3c(OCc4ccc(C(F)(F)F)cc4)cccn23)cc1 [CBK147380] | 94.5%
Cn1ccc(C(=O)N2CCCC(c3cc4ncccc4[nH]3)C2)n1 (stereo not shown) [CBK283412] | 89.8%
Cc1ccc(-c2csc3ncnc(Cl)c23)cc1 [CBK287765] | 74.7%
O=C(c1ccco1)N1CCC[C@H]1[C@H](O)c1nc2ccccc2s1 [CBK284290] | 99%
COc1cc(C(=O)N2CCC3(CC2)CC(=O)c2cc(Br)ccc2O3)ccc1C [CBK149465] | 110%
CN(C)CC(O)c1cc2n(n1)CCCN(CC(=O)NCc1cccs1)C2 (stereo not shown) [CBK306738] | 91.6%
CC1CCCN(C(=O)CCn2c(-c3ccncc3)cc3cccnc32)C1 (stereo not shown) [CBK282152] | 108%
O=C(Cn1c(-c2cccs2)cc2cccnc21)NCc1cccnc1 [CBK282457] | 105%
COc1ccc(OC)c(-n2c(S)nnc2Cn2c(-c3ccccn3)nc3ccccc32)c1 [CBK269320] | 93.5%
Brc1csc(CN2CCN3CCCC3C2C2CCCCC2)c1 (stereo not shown) [CBK026298] | 103%
Cc1ccc(C(=O)NNCc2ccccc2)c(NCc2cccnc2)n1 [CBK076369] | 88.6%
Cc1ccc(NC(=O)CN2C(=O)c3ccccc3C2=O)c(O)c1 [CBK270028] | 88.2%
CC(C)c1nc(CN2CCN(c3ccc4nncn4n3)CC2)cs1 [CBK306219] | 102%
COc1cccc(CN[C@@H]2CCC[C@H]2Cc2cc(C)no2)c1 [CBK283006] | 109%
COc1ccccc1-c1ccc(NC(=O)C2(c3cccc(F)c3)CCOCC2)cc1 [CBK285747] | 103%
COc1ccc(C(=O)NNC(=O)c2cccc(O)c2)cc1 [CBK262594] | 118%
O=C(CSc1nnc(-c2ccccc2O)o1)c1ccc(Cl)cc1 [CBK068032] | 98.4%
O=C(NCc1ccco1)c1cccc(Oc2ccccc2)c1 [CBK270333] | 89.3%
O=S(=O)(Nc1nccnc1-c1cccs1)c1ccccc1Cl [CBK050775] | 94.9%
CCOC(=O)c1c(NC(=O)c2cc3ccccc3o2)sc2c1CCCC2 [CBK262552] | 84%
CC(=O)Nc1ccc(NC(=O)CCn2c(-c3cccc(C)c3)n[nH]c2=S)cc1Cl [CBK296656] | 99.3%

Compound | viability at 28.5 h, 10 µM
CSCCC(Nc1ncnc2c1c(C)c(C)n2Cc1ccco1)C(=O)O (stereo not shown) [CBK307568] | 92.3%
Cc1ccc([N+](=O)[O-])cc1/C=C(/C#N)c1nc2ccccc2s1 [CBK267085] | 95.4%
COc1ccc(-c2cnc3[nH]c(=O)n(Cc4cccs4)c3n2)c(OC)c1OC [CBK064716] | 97.2%
CN(C)c1cccc(Nc2ccc(-c3ccc(CCC(=O)O)cc3)cn2)c1 [CBK036918] | 97.2%
Cc1cc(NS(=O)(=O)c2ccc(NC(=O)c3cc(-c4ccc(C)o4)nc4ccccc34)cc2)nc(C)n1 [CBK262628] | 93.9%
O=CN1C2CCC1c1cnc3cc(-c4cccc(F)c4)nn3c1C2 (stereo not shown) [CBK282269] | 91.9%
CC(C)(Oc1ccc(Cl)cc1)C(=O)Nc1ccc(CN2C(=O)CNC2=O)cc1 [CBK296668] | 103%
NS(=O)(=O)c1ccccc1Cl [CBK113172] | 98.1%
CCc1c(C)nc2ccccc2c1SCCOC(=O)Nc1ccc(OC)cc1 [CBK155554T] | 92.5%
Cn1nccc1CN1CCCC(COc2ccccc2F)C1 (stereo not shown) [CBK281663] | 87.2%
O=C(O)CC(C(=O)O)N1C(=O)/C(=C2/C(=O)Nc3ccc(Br)cc32)SC1=S (stereo not shown) [CBK261791] | 104%
O=c1[nH]c2ncc(-c3ccc4c(c3)OCO4)nc2n1C1CC1 [CBK064922] | 98.5%
O=C(c1ccco1)N1Cc2nc[nH]c2C[C@H]1c1nc(-c2ccc3ccccc3c2)no1 [CBK288965] | 108%
COC(=O)[C@H]1CN(C(=O)c2ccco2)C[C@@H]1c1ccc(F)cc1 [CBK283733] | 85.8%
COc1ccc(Cl)cc1NC(=S)NNC(=O)c1cc(C)nc2ccccc12 [CBK266920] | 50.5%
c1ccc(CCc2nn3c(Cn4cnc5ccccc54)nnc3s2)cc1 [CBK268332] | 84.2%
CCCCn1nccc1NC(=O)NC(C)c1ccncc1 (stereo not shown) [CBK304840] | 99.2%
CCN(CC)CCOC1CCc2ccccc2CC1 [CBK016730C] | 96.7%
Cc1onc(-c2ccccc2)c1C(=O)NNC(=S)NC(=O)c1ccc(Cl)cc1 [CBK267493] | 91.1%
CN(C1CCCCC1)S(=O)(=O)NCCc1cn2ccccc2n1 [CBK305576] | 102%
O=C(O)CCC1NC(=O)N(C2CCCCC2)C1=O (stereo not shown) [CBK287046] | 77.3%
CCOC(=O)c1csc(C2CCCN2C(=O)c2cc(SC)ccc2Cl)n1 (stereo not shown) [CBK306491] | 88%

Compound | viability at 28.5 h, 10 µM
COc1cccc(C(O)CN2CCC3(CC2)CC(O)c2cc(Cl)c(C)cc2O3)c1 (stereo not shown) [CBK286342] | 99.3%
Nc1nnc(SC2c3cccc4cccc(c34)C2NS(=O)(=O)c2ccc(Cl)cc2)s1 (stereo not shown) [CBK266373] | 99.7%
CC(c1ccccc1)n1c(S)nnc1-c1cc(C(C)(C)C)n[nH]1 (stereo not shown) [CBK268954] | 92.2%
c1ccc(CN(Cc2ccccc2)Cn2c3ccccc3c3ccccc32)cc1 [CBK263575] | 93.6%
COc1ccc([C@@]23CC[C@@H](NC(=O)Nc4ccc(Cl)nc4)C[C@@H]2N(C)CC3)cc1OC [CBK045764] | 91.9%
CCCCn1cnc2c(c1=O)c1nc3ccccc3nc1n2CCc1ccc(OC)cc1 [CBK269538] | 85.7%
COc1ccc2c(c1)C1(CC(=O)N(CC3CCCCC3)C1=O)C(=O)N2C (stereo not shown) [CBK075201] | 100%
CCC(CN1CCOCC1)NC(=O)Cc1coc2cc(C)c(C)cc12 (stereo not shown) [CBK282811] | 91%
Cc1ccc(CC2CCCN2CC(=O)NCc2ccccn2)cc1 (stereo not shown) [CBK304070] | 96.6%
Cc1c(C#N)c(=O)oc2ccccc12 [CBK007705] | 95.2%
CC(=O)NCCn1cc2c(n1)[C@H]1CN(C(=O)CC(C)C)C[C@H]1CC2 [CBK284572] | 99.1%
Cn1c(=O)c2[nH]c(CN3CCN(Cc4ccccc4)CC3)nc2n(C)c1=O [CBK269519] | 86.3%
Cc1ccn2cc(-c3ccc4c(c3)CC(C)N4S(C)(=O)=O)cc2c1 (stereo not shown) [CBK285253] | 89%
COc1ccc(Br)cc1CNCCCN1CCOCC1 [CBK278208C] | 102%
CCOC(=O)c1cnc2ccc(F)cc2c1NCCN(C)C [CBK265751] | 91.7%
CN(CC(=O)OCC(=O)c1ccccc1)S(=O)(=O)c1ccc(Cl)cc1 [CBK264363] | 105%
O=c1[nH]c(=O)c2cc(S(=O)(=O)Nc3ccc(Oc4cccnc4)cc3)ccc2[nH]1 [CBK286386] | 99.2%
CCN(CC)CCn1c(=N)n(CC(=O)OC)c2ccccc21 [CBK262517B] | 87.3%
CN1CCC(N(C)C2CCN(Cc3ccccc3)CC2)CC1 [CBK261925] | 85.8%
CCN(CC)C(=O)CC1SC(NCC2CCCCC2)=NC1=O (stereo not shown) [CBK067923] | 92.9%
CN1CCN(c2ccc(NC(=O)c3ccc(OCc4ccccc4)cc3)cc2)CC1 [CBK266124] | 99.6%
O=C(O)CSc1nc2ccccc2n1Cc1ccccc1 [CBK262411] | 94.2%

Compound | viability at 28.5 h, 10 µM
C/C(CS(=O)(=O)c1ccccc1)=N/NC(N)=S [CBK026285] | 111%
CCOC(=O)N1CCC(NS(=O)(=O)Cc2ccccc2[N+](=O)[O-])CC1 [CBK045467] | 97.3%
Oc1c(C(Nc2cccnc2)c2ccccc2OCc2ccccc2)ccc2cccnc12 (stereo not shown) [CBK268587] | 71.5%
CCC(CC)C(=O)N(C)c1c(C)nc2ccc(C(=O)NCCc3c[nH]c4ccccc34)cn12 [CBK146495] | 85.5%
CC(C)C(=O)N1CCCC(n2c(=O)oc3ccc(Cl)cc32)C1 (stereo not shown) [CBK282890] | 95.3%
COc1cccc(NC(=O)N[C@H]2CCN3C(=O)[C@@H](Cc4ccccc4)NC(=O)[C@H]23)c1 [CBK289230] | 94.5%
O=C(NCc1ccc2c(c1)OCO2)C1CN(S(=O)(=O)c2ccccc2)CCN1S(=O)(=O)c1ccccc1 (stereo not shown) [CBK267059] | 102%
O=C(c1cc(-c2ccncc2)nc2ccc(Cl)cc12)N1CCN(c2ccc([N+](=O)[O-])cc2)CC1 [CBK267748] | 83.8%
O=c1c(-c2nncn2-c2ccccc2)coc2c(O)c(O)ccc12 [CBK266889] | 102%
CC(C)(C)OC(=O)N1CCC(Oc2nccnc2OCc2ccc(Cl)cc2F)CC1 [CBK163968] | 104%
CN(C)CC(c1ccccc1)c1nnc2n1-c1ccc(S(C)(=O)=O)cc1C(c1ccccc1)=NC2 (stereo not shown) [CBK005856G] | 102%
CN(C)C(CNc1nccnc1-c1ccccc1F)c1cccnc1 (stereo not shown) [CBK037290] | 101%
CCOC(=O)c1c(NC(=O)CSc2nnc3ccccn23)sc2c1CCCCC2 [CBK265685] | 101%
Cc1cc(-c2cc(=O)n(Cc3ccccc3)nc2C2CC2)on1 [CBK284365] | 86.2%
O=C(O)c1ccc(COc2cccc(/C=N\O)c2)cc1 [CBK288501] | 91.9%
CC1=Nc2ccc(Cl)cc2C(C)(C)O1 [CBK022763C] | 107%
CCC(=O)N1CCCCC1c1nn(C)cc1-c1onc(C)c1C (stereo not shown) [CBK283411] | 80.5%
CC(Cc1ccccn1)NC(=O)c1cc(-c2ccccc2F)no1 (stereo not shown) [CBK281421] | 91.1%
CN1CCN(c2nc(NS(=O)(=O)c3ccc(C#N)cc3)cc3ccccc23)CC1 [CBK002977C] | 94.8%
O=C1CCCN1CCCNc1nccnc1-c1ccc(CO)cc1 [CBK036860] | 87.2%
Cc1cccc(C2(O)CCN(C(=O)CCCc3ccncc3)CC2)c1 [CBK282506] | 111%
O=C1CCCN1c1ccc(CN2CCN(C3CCCC3)C(=O)C2)cc1 [CBK281908] | 96.2%
